Assay results taken from patent publication US20250325467A1, “COMPOSITIONS FOR PREVENTING OR TREATING SKIN AGING” (ESTETRA SRL, priority 2021, published 2025).
Entries after “also recorded” stand apart in the source; their conditions may differ.

Legend:
[1] = test system: Normal Human Dermal Fibroblasts (NHDFs); assay: Colonization of a standard acellular area (IBIDI chamber gap closure) by fibroblasts; assay type: cell-based; conditions: vs ethanol control; for NHDF Migration (+MMC) (colonization of the acellular area): presence of MMC, 6 h and 24 h
Description: The study consists in an in vitro assay aiming to evaluate the properties of E4 and E2 at 4 concentrations each on keratinocytes and fibroblasts. In this assay, the measurement of the colonization of a standard acellular surface generated from a confluent monolayer of cells using a dedicated culture device (IBIDI chamber) is performed. The assay is performed in absence and in presence of a proliferation inhibitor to focus on cell proliferation and migration or on migration only, respectively.
Normal Human forskin-derived Dermal Fibroblats (NHDFs, ATCC) cells were grown in phenol-free Dulbecco's Modified Eagle Medium (DMEM, ThermoFisher Scientific) supplemented with 10% of Foetal Bovine Serum (FBS, ThermoFisher Scientific), L-glutamine and antibiotics. The cells were maintained in a humidified incubator at 37° C. with a 5% CO2 atmosphere.
Cells were plated in 2-well silicone inserts with a defined cell free gap (IBIDI chambers; IBIDI GmbH, 80209) that was previously inserted on 12-well culture plates. This culture device allows to create a standardized 500 μm±100 μm cell free gap for monitoring cell colonization. 24 h after seeding, when the culture reached high confluency, cells in the insert were treated, or not, with mitomycin C (MMC) at 10 μg/ml during 2 h. After these 2 hours, the insert was removed, and cells were treated with E2 or E4 in presence or not of MMC for additional 2 h. Then, if appropriate, the culture medium was removed and cells were treated with E2 or E4 for 22 h, in absence of MMC.
For the assay, keratinocytes were plated in Epilife medium without HKGS and all the treatments were performed in this medium. Fibroblasts were plated in DMEM medium containing only 2,5% of FBS and the treatments were performed in absence of FBS.
E2 and E4 were applied at 4 concentrations each (10^−7M, 10^−8M, 10^−9M, 10^−10M). In parallel, cells were treated with a positive control (HKGS 1% for human keratinocytes and PDGF-BB at 10 ng/ml for human fibroblasts).
To monitor cell colonization and to evaluate the gap closure rate, pictures of the gap were taken after different times: at time 0 h, corresponding to the beginning of the treatment with E2 or E4 and to the removal of the culture insert, at time 6 h and at time 24 h (corresponding to the end of the treatments with E2 or E4). Pictures were taken with a microscope Zeiss (Axiover 25-10× objective) and with a camera Invenio2EIII (DeltaPix—Lux-Optic). The colonized areas were quantified from the pictures by the use of the WimAsis platform—WimScratch software. For each insert, 3 pictures were taken at each time. As each condition was performed in triplicates, it means a total of 9 pictures per condition and per time point of acquisition

human monocytes = assay: Immune cell polarization (qPCR of M1/M2 markers), human monocytes; assay type: cell-based; conditions: activated human monocytes; qPCR markers NOS2, ARG1
Description: Immune cell polarization was evaluated in vitro using markers for M1/TH-1 (NOS2) and M2/TH-2 (ARG1) phenotype with human monocytes and mouse monocytes (BMDM bone marrow derived monocytes).
Human blood was collected under national ethical approval with full informed written patient consent. Freshly isolated human blood was collected in EDTA vacutainer tubes, diluted 1:1 in PBS and gently layered onto histopaque (Merck). Tubes were immediately centrifuged at 100×g for 30 minutes and the whitish buffy layer formed at the histopaque interface aspirated and washed (centrifuged 100×g, 10 minutes) twice with sterile PBS. Untouched classical (CD14++, CD16−) monocytes were isolated from the washed buffy layer cells using the Miltenyi Classical Monocyte Isolation Kit, LS columns and a MidiMACs separator (Miltenyi). Isolated cells were seeded into tissue culture plates and stimulated to differentiate using PMA.
An experiment was conducted to evaluate the anti-inflammatory effects of E4 or vehicle (negative control). qPCR methodology was used to assess the effects of E2 and E4 on immune cell polarization using well validated marker of pro-inflammatory (NOS2 for MI/TH-1 phenotype) and anti-inflammatory (ARG1 for ME/TH-2 phenotype) activity.

IL-6 release from NHEKs = assay: PMA/A23187-induced IL-6 release from NHEKs (ELISA, normalized to viability); assay type: cell-based, human; conditions: 24 h, vs stimulated EtOH 0.1% condition
Description: The Normal Human foreskin-derived Epidermal Keratinocytes (NHEKs, Lonza, 00192906), isolated from foreskin of 3 Caucasian donors, were grown in Epilife medium (Fisher Scientific, M-EPI-500-A) supplemented with Human Keratinocyte Growth Supplement (HKGS, Fisher Scientific, S-001-5) and antibiotics (Gentamycin, Fisher Scientific, 15710-049). The cells were maintained in a humidified incubator at 37° C. with a 5% CO2 atmosphere.
E4 and E2, provided as powder, were dissolved in 100% ethanol at 0.1M. They were then further diluted in ethanol and in culture medium to reach the appropriate concentrations. […] Practically, stock solutions 1000-fold concentrated were prepared in 100% ethanol, aliquoted and stored at −20° C. until cell application.
In order to induce the release of IL-6, NHEKs were exposed for 24 h with phorbol myristate acetate (PMA) at 10 ng/mL, in combination with calcium ionophore A23187 (Sigma Aldrich, C5722) at 2 μM. The treatments with the test or reference items were performed simultaneously with the inflammatory challenge. […] E4 was applied at 10^−4, 10^−5, 10^−6, 10^−7 and 10^−8 M and E2 at 10^−5, 10^−6, 10^−7, 10^−8 and 10^−9 M EtOH at 0.1% was tested as solvent control. Dexamethasone at 10 μM was used as anti-inflammatory reference. At the end of 24 h treatment, supernatants were harvested and stored at −20° C., and cell viability assay was assessed by MTS (see section 5). The kinetics of the treatments is outlined in FIG. 12. All the treatments were performed in triplicates (n=3).
The quantification of the release of inflammatory markers was performed using specific ELISA kits, based on standard curves, according to supplier's specifications. The results were then normalized to the corresponding cell viability (obtained by MTS assay).
The supplier's reference of the kits used for IL-6 quantification is as follows: IL-6, BioTechne, D6050.
At the end of the treatments and culture media collection, the viability of the cells was evaluated using the MTS (3-(4,5-dimethythiazol-2-yl)-5-(3-carboxy-methoxyphenyl)-2-(4-sulfophenyl)-2H-tetrazolium) assay. The effects of the treatments were compared to the untreated control condition and to the solvent control (EtOH 0.1%). The viability data were used in order to normalize the quantities of released inflammatory mediators.
NHEKs were treated as described in the methodology section. The quantification of IL-6 by ELISA was performed from the collected supernatants, following the instructions of the kit provider. Only 3 concentrations of the test items (chosen in accordance with the Sponsor following the results of the viability assay) were assessed in the ELISA.

C[C@]12CC[C@@H]3c4ccc(O)cc4CC[C@H]3[C@@H]1[C@@H](O)[C@@H](O)[C@@H]2O [E4, 1,3,5 (10)-estratrien-3,15alpha,16alpha,17beta-tetrol]
NHDF Migration (+MMC) (colonization of the acellular area) ([1]; 10^−7M): significantly increase the colonization of the acellular area; also recorded: significant activity
NHDF Migration (+MMC) (colonization of the acellular area) ([1]; 10^−8M): significantly increase the colonization of the acellular area; also recorded: significant activity
colonization of the cell-free area by NHDF, overall ([1]; absence of MMC, all four concentrations (10^−7M to 10^−10M)): not able to significantly increase the colonization of the cell-free area
immune cell polarization (monocyte subtype M1/M2) (human monocytes): switch from monocyte subtype M1 (pro-inflammatory) to subtype M2 (healing)
PMA/A23187-induced IL-6 release (IL-6 release from NHEKs; 10^−5 M): significantly and strongly decreased the release of IL-6; also recorded: strongly and significantly diminished
PMA/A23187-induced IL-6 release (IL-6 release from NHEKs; 10^−6 M): significantly and strongly decreased the release of IL-6; also recorded: strongly and significantly diminished
PMA/A23187-induced IL-6 release (IL-6 release from NHEKs; 10^−7 M): significantly and strongly decreased the release of IL-6; also recorded: strongly and significantly diminished
